This note sets out measurements from ChEMBL document CHEMBL5113489, “Design, synthesis, and biological evaluation of membrane-active honokiol derivatives as potent antibacterial agents” (Eur J Med Chem, 2022).

The subject of series [1] is Staphylococcus aureus. The series can be described thus: In vivo antibacterial activity against Staphylococcus aureus ATCC 43300 in septicemia mouse model assessed as log reduction in bacterial load in kidney at 5 mg/kg, administered every 12 hrs for 3 days. In kind it is functional.
The test system of series [2] is Staphylococcus aureus. The series can be described thus: In vivo antibacterial activity against Staphylococcus aureus ATCC 43300 in septicemia mouse model assessed as log reduction in bacterial load in liver at 5 mg/kg, administered every 12 hrs for 3 days. In kind it is functional.
The subject of series [3] is Staphylococcus aureus. The series can be described thus: In vivo antibacterial activity against Staphylococcus aureus ATCC 43300 in septicemia mouse model assessed as log reduction in bacterial load in spleen at 5 mg/kg, administered every 12 hrs for 3 days. In kind it is functional.
Series [4] concerns Staphylococcus aureus. The series is described as follows: Antibacterial activity against Staphylococcus aureus ATCC 43300. In kind it is functional.
The subject of a further series is Bacillus subtilis. The series can be described thus: Antibacterial activity against Bacillus subtilis ATCC 9372. It is filed as functional.
Series [5] concerns Staphylococcus aureus. The series is described as follows: Antibacterial activity against Staphylococcus aureus ATCC 31007. In kind it is functional.
Series [6] has as its system Escherichia coli. The series can be described thus: Antibacterial activity against Escherichia coli ATCC 25922. In kind it is functional.
The subject of series [7] is Staphylococcus aureus. The series can be described thus: Antibacterial activity against Staphylococcus aureus ATCC 25923. In kind it is functional.
For series [8], the system named is Escherichia coli. The series is described as follows: Antibacterial activity against Escherichia coli ATCC 25922 assessed as resistance development by measuring fold increase in MIC. In kind it is functional.
Another series has as its system Pseudomonas aeruginosa. The series can be described thus: Antibacterial activity against Pseudomonas aeruginosa ATCC 27853. In kind it is functional.
Series [9] can be described thus: Hemolytic activity in sheep RBC. In kind it is toxicity, cell-based, Ovis aries, Erythrocyte. The settings on record: sheep red blood cells (erythrocytes).
Series [10] is described as follows: Selectivity index, ratio of HC50 for hemolytic activity in sheep RBC to MIC for antibacterial activity against Staphylococcus aureus ATCC 43300. It is filed as toxicity. The settings on record: sheep red blood cells (erythrocytes).
Series [11] relates to Staphylococcus aureus. The series is described as follows: Antibacterial activity against Staphylococcus aureus ATCC 43300 assessed as resistance development by measuring fold increase in MIC. In kind it is functional.

For the compound `O=C(O)c1cn(C2CC2)c2cc(N3CCNCC3)c(F)cc2c1=O` [CIPROFLOXACIN], the “log(activity)” value turned out to be 1.56 in the series with Staphylococcus aureus [1], 2.01 with Staphylococcus aureus [2] and 1.52 with Staphylococcus aureus [3].

As a reminder, the MIC is the least concentration at which growth counts as inhibited. Low values mean a more susceptible organism, high ones a less susceptible organism. For the compound COLISTIN, the MIC worked out at 64 µg/mL against Staphylococcus aureus [4]; 8 µg/mL in the series on Bacillus subtilis; 128 µg/mL in the series with Staphylococcus aureus [5]; 2 µg/mL in the series with Escherichia coli [6]; 64 µg/mL with Staphylococcus aureus [7]; 1 µg/mL in the series with Pseudomonas aeruginosa. Further, the fold change (FC) in the series on Escherichia coli [8] turned out to be 64.

The HC50 is the concentration giving 50% haemolysis. For the compound `C=CCc1ccc(OCC(=O)NCCC[N+](C)(C)CCCCCCCCCC)c(-c2ccc(OCC(=O)NCCC[N+](C)(C)CCCCCCCCCC)c(CC=C)c2)c1.[Br-].[Br-]`, the MIC stood at 4 µg/mL against Staphylococcus aureus [4]; 8 µg/mL in the series on Bacillus subtilis; 4 µg/mL against Staphylococcus aureus [5]; 32 µg/mL with Escherichia coli [6]; 2 µg/mL with Staphylococcus aureus [7]; 128 µg/mL against Pseudomonas aeruginosa. For the same compound, in series [9], the HC50 was 53 µg/mL. Further, in series [10], the selectivity ratio came to 13.2.

As for `C=CCc1ccc(OCC(=O)NC(CCCCN)C(=O)NCCCCCCCCCC)c(-c2ccc(OCC(=O)NC(CCCCN)C(=O)NCCCCCCCCCC)c(CC=C)c2)c1.O=C(O)C(F)(F)F.O=C(O)C(F)(F)F` (stereo not drawn), the MIC was 4 µg/mL in the series with Staphylococcus aureus [4]; 4 µg/mL with Bacillus subtilis; 8 µg/mL with Staphylococcus aureus [5]; 16 µg/mL in the series on Escherichia coli [6]; 4 µg/mL against Staphylococcus aureus [7]; 16 µg/mL in the series on Pseudomonas aeruginosa. In addition, the HC50 in series [9] was above 1280 µg/mL. The selectivity ratio in series [10] is above 320.

For `C=CCc1ccc(OCCC[N+](C)(C)CCCC)c(-c2ccc(OCCC[N+](C)(C)CCCC)c(CC=C)c2)c1.[Br-].[Br-]`, the MIC in the series with Staphylococcus aureus [4] was found to be 4 µg/mL; against Bacillus subtilis it was 4 µg/mL; against Staphylococcus aureus [5] it was 8 µg/mL; with Escherichia coli [6] it was 16 µg/mL; against Staphylococcus aureus [7], 4 µg/mL; in the series on Pseudomonas aeruginosa, 128 µg/mL. For the same compound, the HC50 in series [9] was 1180 µg/mL. The selectivity ratio in [10] amounted to 295.

Turning to `C=CCc1ccc(OCCCN)c(-c2ccc(OCCCN)c(CC=C)c2)c1.Cl.Cl`, the minimal inhibitory concentration (MIC) against Staphylococcus aureus [4] is 4 µg/mL; in the series with Bacillus subtilis it was 32 µg/mL; against Staphylococcus aureus [5], 8 µg/mL; against Escherichia coli [6], above 128 µg/mL; against Staphylococcus aureus [7], 4 µg/mL; in the series on Pseudomonas aeruginosa, 64 µg/mL. In [9], the concentration for 50% haemolysis (HC50) was 438 µg/mL. Moreover, the selectivity ratio in series [10] worked out at 110.

Turning to `C=CCc1ccc(OCC(=O)NC(CCCCN)C(=O)NCC23CC4CC(CC(C4)C2)C3)c(-c2ccc(OCC(=O)NC(CCCCN)C(=O)NCC34CC5CC(CC(C5)C3)C4)c(CC=C)c2)c1.O=C(O)C(F)(F)F.O=C(O)C(F)(F)F` (stereo not drawn), the MIC in the series with Staphylococcus aureus [4] is 4 µg/mL; with Bacillus subtilis it was 4 µg/mL; in the series with Staphylococcus aureus [5], 4 µg/mL; against Escherichia coli [6], above 128 µg/mL; in the series on Staphylococcus aureus [7], 8 µg/mL; with Pseudomonas aeruginosa, above 128 µg/mL. In series [9], this compound showed an HC50 of 1280 µg/mL. Further, the selectivity ratio in series [10] is above 320.

On to `CCn1cc(C(=O)O)c(=O)c2cc(F)c(N3CCNCC3)cc21` [NORFLOXACIN], for which the “fold change (FC)” value with Staphylococcus aureus [11] was determined as 256.

For `C=CCc1ccc(OCCC[N+](C)(C)CCCCCCCC)c(-c2ccc(OCCC[N+](C)(C)CCCCCCCC)c(CC=C)c2)c1.[Br-].[Br-]`, the MIC with Staphylococcus aureus [4] was determined as 2 µg/mL; in the series on Bacillus subtilis, 1 µg/mL; against Staphylococcus aureus [5], 2 µg/mL; against Escherichia coli [6], 8 µg/mL; against Staphylococcus aureus [7] it was 2 µg/mL; in the series on Pseudomonas aeruginosa, 16 µg/mL. This compound had a 50% haemolytic concentration (HC50) in [9] of 36 µg/mL. Further, the selectivity ratio in series [10] amounted to 18.

Turning to `C=CCc1ccc(OCCN)c(-c2ccc(OCCN)c(CC=C)c2)c1.Cl.Cl`, the MIC against Staphylococcus aureus [4] was determined as 8 µg/mL; in the series with Bacillus subtilis it was 32 µg/mL; in the series with Staphylococcus aureus [5] it was 16 µg/mL; in the series on Escherichia coli [6], 16 µg/mL; in the series with Staphylococcus aureus [7] it was 8 µg/mL; against Pseudomonas aeruginosa, 64 µg/mL. In series [9], this compound displayed an HC50 of 694 µg/mL. The selectivity ratio in series [10] is 86.7.

As for `C=CCc1ccc(OCC(=O)NC(CCCCN)C(=O)NCCCCCC)c(-c2ccc(OCC(=O)NC(CCCCN)C(=O)NCCCCCC)c(CC=C)c2)c1.O=C(O)C(F)(F)F.O=C(O)C(F)(F)F` (stereo not drawn), the MIC against Staphylococcus aureus [4] stood at 8 µg/mL; against Bacillus subtilis, 8 µg/mL; in the series on Staphylococcus aureus [5], 8 µg/mL; in the series with Escherichia coli [6], 16 µg/mL; in the series on Staphylococcus aureus [7], 8 µg/mL; in the series on Pseudomonas aeruginosa it was 16 µg/mL. The same compound came in with an HC50 in series [9] of 502 µg/mL. Moreover, the selectivity ratio in [10] came to 62.7.

Turning to `C=CCc1ccc(OCC(=O)NCCC[N+](C)(C)CCCCCCCC)c(-c2ccc(OCC(=O)NCCC[N+](C)(C)CCCCCCCC)c(CC=C)c2)c1.[Br-].[Br-]`, the MIC in the series on Staphylococcus aureus [4] came to 2 µg/mL; against Bacillus subtilis, 4 µg/mL; with Staphylococcus aureus [5], 4 µg/mL; in the series on Escherichia coli [6], 8 µg/mL; with Staphylococcus aureus [7], 2 µg/mL; against Pseudomonas aeruginosa it was 16 µg/mL. In [9], this compound returned an HC50 of 123 µg/mL. For the same compound, the selectivity ratio in [10] was determined as 61.5.
